Row | Structure (SMILES) | melting point [°C]
1 | COc1cc(-c2nc(N)sc2SCC2CCCCC2)c(OC)cc1C | 111 to 112
2 | N#CC1=C2C(=NC1=O)c1c(OCc3cccs3)ccc3cccc2c13 | 241 to 243
3 | COC(=O)c1ccc(Br)cc1CSC | 79.3
4 | c1ccc2c(c1)CCC1C2=NNC1c1ccncc1 (configuration not stated) | 169 to 173
5 | O=S(=O)(c1ccccc1)N1CCCC1c1ccc(F)cc1 (racemic) | 100
6 | CCCCCCOc1c(OCCCCCC)c(OC(=O)C(C)(C)C)c2ccccc2c1OC(=O)C(C)(C)C | 111 to 112
7 | CCCCCCCCCCCCCCCC(=O)N[C@@H](Cc1ccc(O)cc1)C(=O)OC | 100
8 | CCCCCCCCCCCCCCOc1ccc(C(=O)N(CC(=O)O)CC(=O)O)cc1OCCCCCCCCCCCCCC | 84 to 87
9 | O=C(Nc1nccs1)c1c(C(F)F)nc2c(C(F)(F)F)cccc2c1O | 226
10 | CCCCCCCCCCCCc1c2c(=O)c3ccccc3c2c(CCCCCCCCCCCC)c2c(=O)c3ccccc3c12 | 123 to 124
11 | O=C1c2ccccc2CCC1CN1CCC2(CC1)C(=O)NCN2c1ccccc1 (configuration not stated) | 170 to 173
12 | CCOC(=O)C1=C(C)NC(C)=C(C(=O)OCCN2CCN(C(c3ccc(C)cc3)c3ccc(C)cc3)CC2)C1c1cccc(Cl)c1Cl (configuration not stated) | 85 to 88
13 | C=CC(=O)OCc1cn(-c2ccccc2)nn1 | 55 to 56
14 | O=C1c2c(O)ccc(O)c2C(=O)c2c(NCCN3CCOCC3)ccc(NCCN3CCOCC3)c21 | 241 to 243
15 | CCCn1nc(C)c2nc(C)nc(O)c21 | 196 to 198
16 | NCC1N=C(c2ccccc2F)c2ccccc2NC1=O (racemic) | 168 to 169
17 | O=C1N(Cc2ccc(Br)cc2)c2ccccc2C12COc1cc3c(cc12)OCO3 (configuration not stated) | 148 to 150
18 | CCCOCCOC(=O)C1=C(C)NC(C)=C(P(=O)(OC(C)C)OC(C)C)C1c1cccc([N+](=O)[O-])c1 (configuration not stated) | 125 to 126
19 | Cc1ccc(-c2nc(-c3ccc(C)cc3C)nc(-c3ccc(OCCCCCCO)cc3O)n2)c(C)c1 | 117 to 118
20 | CCn1c2c(c(=O)c3cc(C(C)C)ccc31)Cc1cc(C)sc1-2 | 168 to 169
21 | CC(=O)OC(C(=O)c1cccnc1)c1cccnc1 (configuration not stated) | 136 to 138

Row | Structure (SMILES) | melting point [°C]
22 | CC(C)c1cc(CO)cc(C(C)C)c1NC(=O)CN1CCN(CCSc2nc3cccc(C(F)(F)F)c3o2)CC1 | 146 to 148
23 | C#Cc1ccnc(-c2ccc(-c3cc(C#C)ccn3)c([N+](=O)[O-])c2)c1 | 178 to 180
24 | CS(=O)(=O)c1cc(C(F)(F)F)ns1 | 93 to 94
25 | O=C1Nc2ccc(Br)cc2C1c1ncnc2c1cnn2C1CCCCC1 (configuration not stated) | 305 to 308
26 | OCCC(O)OCn1cc(Cl)c2c(Cl)ncnc21 (configuration not stated) | 142 to 143
27 | NC(=O)c1nc(-c2ccccn2)n2c1CN=C(c1ccccc1Cl)c1cc(Cl)ccc1-2 | 255 to 257
28 | N#Cc1ccc(N)c(F)c1F | 108 to 110
29 | CC(=O)c1ccc(OCCOc2ccc3ccccc3c2)cc1F | 144 to 146
30 | CCCCCCCCCCCCCCCCCCOC(=O)C1CCC2OC2C1 (configuration not stated) | 32 to 34
31 | O=C(CC1(C=NO)OCCO1)OCc1ccccc1 | 52
32 | COc1ccc(C(=O)C23CCCCC2C(=O)O3)cc1 (configuration not stated) | 77.5 to 78.5
33 | CC(=O)c1cc(N=C=O)cc(C(C)=O)c1 | 71
34 | CCS(=O)(=O)Nc1cc(-n2cnc(C(F)(F)F)cc2=O)c(F)cc1C#N | 170
35 | C[C@@](O)(C(=O)Nc1ccc(S(=O)(=O)c2ccccc2NCCO)cc1Cl)C(F)(F)F | 68 to 70
36 | c1ccc(-c2nc(N3CCN(c4ccccn4)CC3)c3ccccc3n2)cc1 | 164 to 166
37 | CCCc1nc2c(N)nc3cc(OCc4cscn4)ccc3c2s1 | 218 to 220
38 | CCOC(COC1CC2C3CCC4=CC(=O)CCC4(C)C3(F)C(O)CC2(C)C1(O)C(=O)CO)OCC (configuration not stated) | 208 to 210
39 | Cc1cccc(NC(=O)NC2CN(CC(=O)N3CC4CCC(CC4)C3)c3c(C)cccc3C(c3ccccc3F)=N2)c1 (configuration not stated) | 246 to 247
40 | N#Cc1ccc(OC[C@H]2C[C@@H](O)CN2c2ccc(C#N)c3ccccc23)c2ccccc12 | 123 to 126
41 | CC1(C)CCC(C)(C)c2cc([N+](=O)[O-])c(O)cc21 | 139
42 | CC(=O)OCc1c(-c2cc(Nc3cc4n(n3)CCN(C3COC3)C4)c(=O)n(C)n2)cccc1-n1ncc2cc(C(C)(C)C)cc(F)c2c1=O | 180 to 185

Row | Structure (SMILES) | melting point [°C]
43 | CON=C(C)c1cc(C[C@H](NC(=O)c2c(Cl)cccc2Cl)C(=O)O)ccc1-c1ccccc1OC | 107
44 | CC(C)(C)c1cc(Br)c(O)c(C=O)c1Cl | 103 to 105
45 | COc1c(-c2ccc3cc(NS(C)(=O)=O)ccc3c2)cc(-n2ccc(=O)[nH]c2=O)cc1C(F)(F)C(F)(F)F | 162 to 165
46 | COc1cc2c(CCN)c[nH]c2cc1Cl | 150
47 | O=C(NC1CCN(CCCOc2ccc3c4c(c(=O)oc3c2)CCC4)CC1)c1cccnc1 | 199 to 200
48 | CNc1ccc(C(C)(C)c2ccc(C(C)(C)c3ccc(NC)cc3)cc2)cc1 | 115 to 122
49 | O=C(C=Cc1cccc(S(=O)(=O)NCc2cccc3ccccc23)c1)NO | 177
50 | COCCOc1cc(Oc2ccc(C(F)(F)F)cn2)ccc1CCCOc1cc(CCC(=O)O)n(-c2ccccc2)n1 | 83 to 85
51 | Cc1oc(-c2ccccc2)nc1COc1ccc(CCCCC2OC(=O)NC2=O)cc1 (configuration not stated) | 186 to 187
52 | Cc1c(C)c2c(c(C)c1Br)C(=O)C(C)(C)O2 | 92 to 93
53 | CCOC(=O)C(=CNc1cccc(N)c1)C(=O)OCC | 71 to 74
54 | O=C(O)CCCCCCCCCCCNC(=O)CCCCCCCCCCBr | 122
55 | CCNc1c(SC(F)(F)F)c(C)nn1-c1c(Cl)cc(C(F)(F)F)cc1Cl | 53 to 54
56 | O=c1oc(-c2cc(C(F)(F)F)cc(C(F)(F)F)c2)ns1 | 61 to 62.5
57 | O=C1c2cc(S(=O)(=O)N3CCOCC3)ccc2SC12CC2 | 162 to 165
58 | CCCCNCCNC(=O)Nc1ccccc1C(=O)NCC1CCN(C(c2ccccc2)c2ccccc2)CC1 | 148 to 150
59 | O=C(c1c(Cl)cccc1Cl)P(=O)(c1ccccc1)c1ccccc1 | 156 to 158
60 | CCOCc1nc2c(N)nc3ccccc3c2n1CC1(O)CCN(C)CC1 | 198
61 | CC1CCN(c2cc(F)cc(C(=O)Nc3ccc(OCCN4CCOCC4)c4ccccc34)c2)CC1 | 116 to 118

Now from value to compound:

Row | melting point [°C] | Structure (SMILES)
62 | 158 to 159 | CCN1c2ncc(CCc3ccncc3)cc2C(=O)N(C)c2ccc(Cl)nc21
63 | 167 to 168 | O=C(O)CCn1ccn(C2CCc3ccccc3C2)c1=S (configuration not stated)
64 | > 300 | COC(=O)Nc1nc2cc(-c3noc4ccccc34)ccc2[nH]1
65 | 116 to 118 | COC(=O)c1ccc(OS(N)(=O)=O)cc1
66 | 98 to 99 | C=CCNC(=O)N1CC(c2ccc(C(C)(C)C)cc2)C1
67 | 228 | CS(=O)(=O)c1cccc(NC(=O)c2cnn3c(C(F)F)cc(-c4ccc(C(F)(F)F)c(Cl)c4)nc23)c1
68 | 209 to 211 | Clc1ccc2c(c1)N(c1ncnc3cc4c(cc13)OCCO4)CC2
69 | 201 to 205 | Nc1ncc2c(n1)-c1ccccc1C(c1ccccc1)=NC2
70 | 164 | CC(C(=O)c1ccc(Cl)cc1)n1ncn(-c2ccc(N3CCN(Cc4ccccc4)CC3)cc2)c1=O (configuration not stated)
71 | 145 to 147 | CC(=O)NC1(c2ccc(CN3CCN(c4ccccn4)CC3)cc2)CC1
72 | 118 | Cc1ccc(C(=O)Cn2cncn2)cc1
73 | 33 to 35 | CCOC(=O)CCCCCOc1ccc(C=O)cc1
74 | 145 to 149 | CN(Cc1cc2c(=O)c(C(=O)NCc3ccc(Cl)cc3)cn(C)c2o1)CC(O)c1cccnc1 (configuration not stated)
75 | 191 | COc1cc(-c2nc3ccc(O)cc3n2Cc2ccccc2C(F)(F)F)cc(OC)c1OC
76 | 122 to 124 | CC(=O)Nc1ccc(-n2nc(C(=O)NC(C)(C)C)c3c2C2CCC3C2)cc1 (configuration not stated)
77 | > 300 | Nc1cc(-c2ccncc2)n[nH]c1=O
78 | 97 to 99 | CCS(=O)(=O)c1ccc(Oc2ccc3c(c2)OCO3)nc1
79 | 132 to 134 | Cn1c(-c2ccccc2[N+](=O)[O-])nc2ccccc21

Row | melting point [°C] | Structure (SMILES)
80 | 88.4 to 91.6 | Cc1[nH]c(CN(C)C)c(C)c1-c1ccnc(Nc2ccc(F)cc2)n1
81 | 116 | C#CCN(c1nc(C)n(-c2ccc(Cl)cc2Cl)n1)c1cc(C)ccc1OC
82 | 157 to 162 | N#CCc1ccc(NC(=O)OCc2cccnc2)cc1
83 | 97 to 98 | CC(C)=CC(=O)N1CC(c2ccccc2)c2ccccc21 (configuration not stated)
84 | 198 to 199 | CC(=O)CCc1nsc2ccc(-n3c(=O)cc(C(F)(F)F)n(C)c3=O)cc12
85 | 248 to 252 | COc1ccc(-c2cnc3cc4cnn(CC#N)c4cc3n2)cc1F
86 | 109 to 111 | CCCC(=O)c1cnc2c(C)cccc2c1Nc1ccccc1F
87 | 186 to 188 | Cc1nc(-c2ccc(OC(C)C)cc2)sc1C(=O)O
88 | 188 to 190 | COc1nc(C)cnc1NS(=O)(=O)c1ccccc1-c1ccc(OC(C)C(=O)O)cc1 (configuration not stated)
89 | 113 to 115 | Cn1nc(-c2ccc(Cl)cc2)n(C)c1=S
90 | 118 to 119 | COc1ccccc1CCc1ccccc1C(=O)O
91 | 122 to 124 | Oc1ccc(Oc2ncc(Cl)cc2Cl)cc1
92 | 171 to 172 | Cc1cc(Nc2ccc(C#N)cc2)c([N+](=O)[O-])c(C)n1
93 | > 300 | COC(=O)c1ccc(-c2nnc3n2-c2cccnc2Nc2ccccc2-3)cc1
94 | 201 | O=C(O)C1(S(=O)(=O)c2ccc(Oc3ccc(Cl)cc3)cc2)CCN(Cc2ccccc2)CC1
95 | 156 to 157 | CCn1cc(-c2cccc(C(F)(F)F)c2)c(=O)n1-c1ccccc1
96 | 204 | CCN(c1ccc(C(C)=O)cc1)c1nc(=O)c2cccnc2s1
97 | 170 to 171 | COC(=O)C1Cc2c(n(C)c3ccccc23)CN1C(=S)SC (configuration not stated)
